# How the values were obtained:
# [1] = tested on: windgrass; experiment: Test Example 4: herbicidal effect by soil treatment (Table 19, symbol L); assay type: in vivo, windgrass (Apera spica-venti); conditions: amount of applied herbicide 320 g/ha
# Summary of the method: (§1)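 Applied as a water-diluted emulsion, the compound was sprayed onto soil covering newly sown seeds. Evaluation came three weeks after application, in a greenhouse held at 25° C. to 30° C.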
# [2] = tested on: false cleavers; experiment: Test Example 4: herbicidal effect by soil treatment (Table 19, symbol Q); assay type: in vivo, false cleavers (Galium spurium); conditions: amount of applied herbicide 320 g/ha
# Summary of the method: as §1
# [3] = tested on: Japanese bulrush; experiment: Test Example 1: herbicidal activity, application before weed generation under submerged conditions (Table 16, symbol B); assay type: in vivo, Japanese bulrush (Schoenoplectus juncoides); conditions: amount of applied herbicide 320 g/ha
# Summary of the method: (§2)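 Submerged Wagner pots (alluvial soil, 4 cm water) sown with weed seeds and planted with 2.5-leaf rice seedlings; emulsifiable concentrate diluted in water applied to water surface on sowing day. Held in greenhouse at 25-30 °C; injury scored 0-5 by herbicidal rate after three weeks.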
# [4] = tested on: persian speedwell; experiment: Test Example 5: herbicidal effect by foliage application, plastic box (Table 20, symbol R); assay type: in vivo, Persian speedwell (Veronica persica); conditions: foliage application, 320 g/ha, three weeks after application
# Summary of the method: (§3)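 Sow seeds spot-wise in sterilized diluvial soil; cover with ~1.5 cm soil. Grow 14 days in greenhouse, 25° C. to 30° C. Spray foliage with emulsion diluted to predetermined amount. Rate effect after 3 weeks.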
# [5] = tested on: barnyard grass; experiment: Test Example 4: herbicidal effect by soil treatment (Table 19, symbol H); assay type: in vivo, barnyard grass (Echinochloa crus-galli); conditions: amount of applied herbicide 320 g/ha
# Summary of the method: as §1
# [6] = tested on: velvetleaf; experiment: Test Example 4: herbicidal effect by soil treatment (Table 19, symbol M); assay type: in vivo, velvetleaf (Abutilon theophrasti); conditions: amount of applied herbicide 320 g/ha
# Summary of the method: as §1
# [7] = tested on: green foxtail; experiment: Test Example 5: herbicidal effect by foliage application, plastic box (Table 20, symbol G); assay type: in vivo, green foxtail (Setaria viridis); conditions: foliage application, 320 g/ha, three weeks after application
# Summary of the method: as §3
# [8] = tested on: chickweed; experiment: Test Example 5: herbicidal effect by foliage application, plastic box (Table 20, symbol P); assay type: in vivo, common chickweed (Stellaria media); conditions: foliage application, 320 g/ha, three weeks after application
# Summary of the method: as §3
# [9] = tested on: persian speedwell; experiment: Test Example 4: herbicidal effect by soil treatment (Table 19, symbol R); assay type: in vivo, Persian speedwell (Veronica persica); conditions: amount of applied herbicide 320 g/ha
# Summary of the method: as §1
# [10] = tested on: Italian ryegrass; experiment: Test Example 5: herbicidal effect by foliage application, plastic box (Table 20, symbol K); assay type: in vivo, Italian ryegrass (Lolium multiflorum); conditions: foliage application, 320 g/ha, three weeks after application
# Summary of the method: as §3
# [11] = tested on: blackgrass; experiment: Test Example 4: herbicidal effect by soil treatment (Table 19, symbol J); assay type: in vivo, blackgrass (Alopecurus myosuroides); conditions: amount of applied herbicide 320 g/ha
# Summary of the method: as §1
# [12] = tested on: rice flat sedge; experiment: Test Example 3: herbicidal effect by foliage application, Wagner pot (Table 18, symbol E); assay type: in vivo, rice flat sedge (Cyperus iria); conditions: 320 g/ha
# Summary of the method: (§4)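 Plants were sown in alluvial soil held under 0.1–0.5 cm standing water and grown 14 days in a greenhouse at 25–30 °C. An emulsifiable formulation, water-diluted to the set dose, was then sprayed onto the foliage, and effects were scored three weeks later using previously defined criteria.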
# [13] = tested on: chickweed; experiment: Test Example 4: herbicidal effect by soil treatment (Table 19, symbol P); assay type: in vivo, common chickweed (Stellaria media); conditions: amount of applied herbicide 320 g/ha
# Summary of the method: as §1
# [14] = tested on: Italian ryegrass; experiment: Test Example 4: herbicidal effect by soil treatment (Table 19, symbol K); assay type: in vivo, Italian ryegrass (Lolium multiflorum); conditions: amount of applied herbicide 320 g/ha
# Summary of the method: as §1
# [15] = tested on: green foxtail; experiment: Test Example 4: herbicidal effect by soil treatment (Table 19, symbol G); assay type: in vivo, green foxtail (Setaria viridis); conditions: amount of applied herbicide 320 g/ha
# Summary of the method: as §1
# [16] = tested on: barnyard grass; experiment: Test Example 3: herbicidal effect by foliage application, Wagner pot (Table 18, symbol H); assay type: in vivo, barnyard grass (Echinochloa crus-galli); conditions: 320 g/ha
# Summary of the method: as §4
# [17] = tested on: southern crabgrass; experiment: Test Example 4: herbicidal effect by soil treatment (Table 19, symbol F); assay type: in vivo, southern crabgrass (Digitaria ciliaris); conditions: amount of applied herbicide 320 g/ha
# Summary of the method: as §1
# [18] = tested on: barnyard grass; experiment: Test Example 5: herbicidal effect by foliage application, plastic box (Table 20, symbol H); assay type: in vivo, barnyard grass (Echinochloa crus-galli); conditions: foliage application, 320 g/ha, three weeks after application
# Summary of the method: as §3
# [19] = tested on: Chinese sprangletop; experiment: Test Example 3: herbicidal effect by foliage application, Wagner pot (Table 18, symbol D); assay type: in vivo, chinese sprangletop (Leptochloa chinensis); conditions: 320 g/ha
# Summary of the method: as §4
# [20] = tested on: late watergrass; experiment: Test Example 1: herbicidal activity, application before weed generation under submerged conditions (Table 16, symbol A); assay type: in vivo, late watergrass (Echinochloa oryzicola); conditions: amount of applied herbicide 320 g/ha
# Summary of the method: as §2
# [21] = tested on: lambsquarters; experiment: Test Example 4: herbicidal effect by soil treatment (Table 19, symbol O); assay type: in vivo, lambsquarters (Chenopodium album); conditions: amount of applied herbicide 320 g/ha
# Summary of the method: as §1
# [22] = tested on: oval-leafed pondweed; experiment: Test Example 1: herbicidal activity, application before weed generation under submerged conditions (Table 16, symbol C); assay type: in vivo, oval-leafed pondweed (Monochoria vaginalis); conditions: amount of applied herbicide 320 g/ha
# Summary of the method: as §2
# [23] = tested on: redroot pigweed; experiment: Test Example 4: herbicidal effect by soil treatment (Table 19, symbol N); assay type: in vivo, redroot pigweed (Amaranthus retroflexus); conditions: amount of applied herbicide 320 g/ha
# Summary of the method: as §1
# [24] = tested on: blackgrass; experiment: Test Example 5: herbicidal effect by foliage application, plastic box (Table 20, symbol J); assay type: in vivo, blackgrass (Alopecurus myosuroides); conditions: foliage application, 320 g/ha, three weeks after application
# Summary of the method: as §3
# [25] = tested on: wild oat; experiment: Test Example 4: herbicidal effect by soil treatment (Table 19, symbol I); assay type: in vivo, wild oat (Avena fatua); conditions: amount of applied herbicide 320 g/ha
# Summary of the method: as §1
# [26] = tested on: lambsquarters; experiment: Test Example 5: herbicidal effect by foliage application, plastic box (Table 20, symbol O); assay type: in vivo, lambsquarters (Chenopodium album); conditions: foliage application, 320 g/ha, three weeks after application
# Summary of the method: as §3
# [27] = tested on: southern crabgrass; experiment: Test Example 5: herbicidal effect by foliage application, plastic box (Table 20, symbol F); assay type: in vivo, southern crabgrass (Digitaria ciliaris); conditions: foliage application, 320 g/ha, three weeks after application
# Summary of the method: as §3
# [28] = tested on: wild oat; experiment: Test Example 5: herbicidal effect by foliage application, plastic box (Table 20, symbol I); assay type: in vivo, wild oat (Avena fatua); conditions: foliage application, 320 g/ha, three weeks after application
# Summary of the method: as §3
# [29] = tested on: windgrass; experiment: Test Example 5: herbicidal effect by foliage application, plastic box (Table 20, symbol L); assay type: in vivo, windgrass (Apera spica-venti); conditions: foliage application, 320 g/ha, three weeks after application
# Summary of the method: as §3
# [30] = tested on: velvetleaf; experiment: Test Example 5: herbicidal effect by foliage application, plastic box (Table 20, symbol M); assay type: in vivo, velvetleaf (Abutilon theophrasti); conditions: foliage application, 320 g/ha, three weeks after application
# Summary of the method: as §3
# [31] = tested on: redroot pigweed; experiment: Test Example 5: herbicidal effect by foliage application, plastic box (Table 20, symbol N); assay type: in vivo, redroot pigweed (Amaranthus retroflexus); conditions: foliage application, 320 g/ha, three weeks after application
# Summary of the method: as §3
SMILES,"Herbicidal effect, B: Japanese bulrush [3]","R: persian speedwell, herbicidal effect grade [4]","G: green foxtail, herbicidal effect grade [7]","P: chickweed, herbicidal effect grade [8]","K: Italian ryegrass, herbicidal effect grade [10]",herbicidal effect on rice flat sedge (E) [12],herbicidal effect on barnyard grass (H) [16],"H: barnyard grass, herbicidal effect grade [18]",herbicidal effect on Chinese sprangletop (D) [19],"Herbicidal effect, A: late watergrass [20]","Herbicidal effect, C: oval-leafed pondweed [22]","J: blackgrass, herbicidal effect grade [24]","O: lambsquarters, herbicidal effect grade [26]","F: southern crabgrass, herbicidal effect grade [27]","I: wild oat, herbicidal effect grade [28]","L: windgrass, herbicidal effect grade [29]","M: velvetleaf, herbicidal effect grade [30]","N: redroot pigweed, herbicidal effect grade [31]",further results
COc1ccccc1-c1sc2cc(Cl)ccc2c1-c1c(O)c(C)nn(C)c1=O [3-035],3 (Herbicidal rate of 40% or more and less than 70%),5 (Herbicidal rate of 90% or more (almost completely withered)),5 (Herbicidal rate of 90% or more (almost completely withered)),5 (Herbicidal rate of 90% or more (almost completely withered)),3 (Herbicidal rate of 40% or more and less than 70%),5 (Herbicidal rate of 90% or more (almost completely withered)),4 (Herbicidal rate of 70% or more and less than 90%),4 (Herbicidal rate of 70% or more and less than 90%),3 (Herbicidal rate of 40% or more and less than 70%),3 (Herbicidal rate of 40% or more and less than 70%),0 (Herbicidal rate of 5% or less (almost no effect)),3 (Herbicidal rate of 40% or more and less than 70%),4 (Herbicidal rate of 70% or more and less than 90%),4 (Herbicidal rate of 70% or more and less than 90%),3 (Herbicidal rate of 40% or more and less than 70%),4 (Herbicidal rate of 70% or more and less than 90%),4 (Herbicidal rate of 70% or more and less than 90%),4 (Herbicidal rate of 70% or more and less than 90%),"L: windgrass, herbicidal effect grade [1]: 0 (Herbicidal rate of 5% or less (almost no effect)); Q: false cleavers, herbicidal effect grade [2]: 3 (Herbicidal rate of 40% or more and less than 70%); H: barnyard grass, herbicidal effect grade [5]: 5 (Herbicidal rate of 90% or more (almost completely withered)); M: velvetleaf, herbicidal effect grade [6]: 3 (Herbicidal rate of 40% or more and less than 70%); R: persian speedwell, herbicidal effect grade [9]: 1 (Herbicidal rate of 5% or more and less than 20%); J: blackgrass, herbicidal effect grade [11]: 3 (Herbicidal rate of 40% or more and less than 70%); P: chickweed, herbicidal effect grade [13]: 4 (Herbicidal rate of 70% or more and less than 90%); K: Italian ryegrass, herbicidal effect grade [14]: 2 (Herbicidal rate of 20% or more and less than 40%); G: green foxtail, herbicidal effect grade [15]: 4 (Herbicidal rate of 70% or more and less than 90%); F: southern crabgrass, herbicidal effect grade [17]: 3 (Herbicidal rate of 40% or more and less than 70%); O: lambsquarters, herbicidal effect grade [21]: 5 (Herbicidal rate of 90% or more (almost completely withered)); N: redroot pigweed, herbicidal effect grade [23]: 4 (Herbicidal rate of 70% or more and less than 90%); I: wild oat, herbicidal effect grade [25]: 0 (Herbicidal rate of 5% or less (almost no effect))"
Cc1nn(C)c(=O)c(-c2c(-c3ccc(OC(F)F)cc3)sc3cc(F)ccc23)c1O [3-141],0 (Herbicidal rate of 5% or less (almost no effect)),5 (Herbicidal rate of 90% or more (almost completely withered)),5 (Herbicidal rate of 90% or more (almost completely withered)),5 (Herbicidal rate of 90% or more (almost completely withered)),5 (Herbicidal rate of 90% or more (almost completely withered)),5 (Herbicidal rate of 90% or more (almost completely withered)),5 (Herbicidal rate of 90% or more (almost completely withered)),4 (Herbicidal rate of 70% or more and less than 90%),2 (Herbicidal rate of 20% or more and less than 40%),3 (Herbicidal rate of 40% or more and less than 70%),0 (Herbicidal rate of 5% or less (almost no effect)),4 (Herbicidal rate of 70% or more and less than 90%),5 (Herbicidal rate of 90% or more (almost completely withered)),0 (Herbicidal rate of 5% or less (almost no effect)),1 (Herbicidal rate of 5% or more and less than 20%),5 (Herbicidal rate of 90% or more (almost completely withered)),5 (Herbicidal rate of 90% or more (almost completely withered)),5 (Herbicidal rate of 90% or more (almost completely withered)),"Herbicidal effect by soil treatment, L: windgrass [1]: 3 (Herbicidal rate of 40% or more and less than 70%); Herbicidal effect by soil treatment, Q: false cleavers [2]: 0 (Herbicidal rate of 5% or less (almost no effect)); Herbicidal effect by soil treatment, H: barnyard grass [5]: 3 (Herbicidal rate of 40% or more and less than 70%); Herbicidal effect by soil treatment, M: velvetleaf [6]: 3 (Herbicidal rate of 40% or more and less than 70%); Herbicidal effect by soil treatment, R: persian speedwell [9]: 4 (Herbicidal rate of 70% or more and less than 90%); Herbicidal effect by soil treatment, J: blackgrass [11]: 3 (Herbicidal rate of 40% or more and less than 70%); Herbicidal effect by soil treatment, P: chickweed [13]: 3 (Herbicidal rate of 40% or more and less than 70%); Herbicidal effect by soil treatment, K: Italian ryegrass [14]: 3 (Herbicidal rate of 40% or more and less than 70%); Herbicidal effect by soil treatment, G: green foxtail [15]: 1 (Herbicidal rate of 5% or more and less than 20%); Herbicidal effect by soil treatment, F: southern crabgrass [17]: 0 (Herbicidal rate of 5% or less (almost no effect)); Herbicidal effect by soil treatment, O: lambsquarters [21]: 5 (Herbicidal rate of 90% or more (almost completely withered)); Herbicidal effect by soil treatment, N: redroot pigweed [23]: 5 (Herbicidal rate of 90% or more (almost completely withered)); Herbicidal effect by soil treatment, I: wild oat [25]: 0 (Herbicidal rate of 5% or less (almost no effect))"
